Source: ChEMBL document CHEMBL1157429, “Design of a fluorescence polarization assay platform for the study of human Hsp70” (Bioorg Med Chem Lett, 2008)
Calls of active or inactive are those of the source. The rule behind the calls is not given here.

What was measured:
[1] = Binding affinity to human recombinant Hsp70 after 24 hrs by fluorescence polarization assay
Homo sapiens [2] = species: Homo sapiens; experiment: Decrease in binding affinity to human recombinant Hsp70 at 5 nM by fluorescence polarization assay in presence of ATP
[3] = biological target: Heat shock protein HSP90 (Homo sapiens) (UniProt P07900+P08238); experiment: Binding affinity to human recombinant Hsp90 by fluorescence polarization assay; assay type: protein assay
Homo sapiens [4] = species: Homo sapiens; experiment: Binding affinity to human Hsp70 assessed as activation of single-turnover ATPase activity at 8 uM
[5] = Binding affinity to Escherichia coli Hsp70 by fluorescence polarization assay

Compound | Kd [1] [nM] | Activity (Homo sapiens [2]) | Activity [3] | Activity (Homo sapiens [4]) | Kd [5] [nM]
CC(C)C[C@H](NC(=O)[C@H](C)NC(=O)CCCCCNC(=S)Nc1ccc(-c2c3ccc(=O)cc-3oc3cc(O)ccc23)c(C(=O)O)c1)C(=O)N[C@@H](CC(C)C)C(=O)N[C@@H](CC(C)C)C(=O)N[C@@H](CO)C(=O)N[C@@H](C)C(=O)N1CCC[C@H]1C(=O)N[C@@H](CCCNC(=N)N)C(=O)N[C@@H](CCCNC(=N)N)C(=O)O | 426 | Active | inactive | Dose-dependent effect | –
CC(C)C[C@H](NC(=O)[C@H](C)N)C(=O)N[C@@H](CC(C)C)C(=O)N[C@@H](CC(C)C)C(=O)N[C@@H](CO)C(=O)N[C@@H](C)C(=O)N1CCC[C@H]1C(=O)N[C@@H](CCCNC(=N)N)C(=O)N[C@@H](CCCNC(=N)N)C(=O)O | – | – | – | – | 400
